What all share (assay type): cell-based
Experiment [1] concerns E. coli MG1655 containing pRS18. Kind of experiment: on-chip step-induction of arsenic-sensing plasmid pRS18 (GFP). The conditions noted are these: pRS18 in E. coli MG1655, M9 + 0.4% glucose. An excerpt: Induction of pRS18, an arsenic-sensing plasmid, was first tested in the microfluidic device. A recombinant strain of E. coli MG1655 containing pRS18 was vacuum loaded into the microfluidic device, grown to confluence, and step-induced with sodium ortho-arsenite (Na3AsO3) in M9 minimal medium supplemented with 0.4% glucose. Images were collected using a Nikon Ti microscope with 4× objective magnification. Step induction was executed using the gravity-driven “Dial-AWave” automated flow control system to mix two medium sources in a defined ratio. The cells were sequentially exposed to arsenic concentrations of 0 μM, 0.1 μM, 0.5 μM, and 1 μM in 6-h windows, allowing time for the cells to respond to each concentration increase. […] We believe that the rise in GFP expression prior to the induction step is due to a small leak of inducer into the medium stream. Average fluorescence within the trapping regions of the images as well as arsenic concentration is plotted over time in FIG. 47C.

Another experiment deals with E. coli MG1655/As1. The experiment in a line: on-chip time-lapse induction of promoter construct (GFP, gill chip).
A further experiment concerns E. coli MG1655/Pb7. The experiment in a line: 8-strain chip induction (fluorescence induction ratio). The conditions noted are these: toxin at t=0, pure water at t=2 hours; arsenic 0.2, cadmium 0.05, chromium(VI) 0.5, copper 5, lead 1.8 μM. An excerpt: (§1) An overview of the sensor can be seen in FIG. 39. In order to acquire the large amount of data required to successfully train the classifier, five replicates of the fully self-contained device prototype were built, in which the microfluidic devices are mounted and imaged using custom-designed optics as shown in some embodiments herein (Milestone 6.9). The majority of the data for this project was acquired using a novel microfluidic device capable of housing eight different bacterial strains that receive media from a shared source. […] The design was expanded to house 18 strains and we have begun taking data with this new chip to provide larger datasets to the classifier. A detailed CAD drawing of this device can be seen in FIG. 56. The 18 cell trapping regions are vacuum-loaded from 18 downstream fluidic ports. Long, serpentine channels upstream of the trapping regions serve as fluidic buffer zones to prevent the cross-contamination of strains while loading. The toxin concentration is controlled dynamically by a peristaltic pump that mixes a water/toxin combination (representing the source water stream) with a concentrated medium stock.
(§2) In each panel, the time series data for the “on-target” responding strain is plotted in bold.

Another experiment relates to E. coli MG1655/As3. Kind of experiment: on-chip time-lapse induction of promoter construct (GFP, gill chip). An excerpt: The on-chip time-lapse induction response of each promoter construct in this table can be seen in FIG. 36. In each figure panel, the moment of toxin introduction is represented as a step in the red trace.
A further experiment concerns GFP sensor strains. The experiment in a line: SVM classification of GFP sensor responses (toxin / no toxin). The conditions noted are these: from classification accuracy and ROC curves. From the text:
Computational models to determine the threshold of detection for specific sensors based on models of experimental GFP responses. We used machine learning techniques to determine the relationships between the GFP output signal and the presence of a toxin. We have created a database containing the collected sensor response data. We have quantified the GFP threshold of detection for each sensor construct. We have constructed Receiver Operating Characteristic (ROC) curves for each sensor to achieve robust sensing. We constructed machine learning models capable of inferring the relationships between the GFP sensor responses and the presence or absence of a toxin at a given concentration. The algorithm learns these relationships from a set of training samples (GFP sensor responses) defined by the set of experimental conditions from which they were generated. The aim of the algorithm is to provide a general method capable of determining the experimental conditions associated with GFP sensor responses through the use of historical data. Specifically, we have built classification models based on Support Vector Machines (SVMs), which is one of the most popular classifiers due to its excellent performance in many contexts and its solid mathematical basis (1). For each toxin and concentration, we solved a binary classification problem in which the positive class represents the presence of the toxin in water and the negative class is associated with clean environments. Patterns were constructed with features containing GFP sensor responses at various timestamps to capture the temporal dynamics of the GFP signal. The optimal meta-parameters of the SVM classifier were determined by applying a 5-crossvalidation during the training phase (2). In order to have a reliable estimate of the performance of the model when deployed in real environments, we measured its performance over a set of samples (test patterns) not seen during the training phase. The SVM's performance was determined by the percentage of test samples correctly labeled as toxin/no toxin (classification accuracy). 80% of samples were used for training the SVM models and the remaining 20% of samples was used to evaluate their effectiveness. We generated 20 random training/test partitions to have an estimate of performance independent of the data partition.
Specifically, we have built classification models based on Support Vector Machines (SVMs), which is one of the most popular classifiers due to its excellent performance in many contexts and its solid mathematical basis. For each toxin and concentration, we solved a binary classification problem in which the positive class represents the presence of the toxin in water and the negative class is associated with clean environments. Patterns were constructed with features containing GFP sensor responses at various timestamps to capture the temporal dynamics of the GFP signal. The optimal meta-parameters of the SVM classifier were determined by applying a 5-crossvalidation during the training phase.
In order to have a reliable estimate of the performance of the model when deployed in real environments, we measured its performance over a set of samples (test patterns) not seen during the training phase. The SVM's performance was determined by the percentage of test samples correctly labeled as toxin/no toxin (classification accuracy). 80% of samples were used for training the SVM models and the remaining 20% of samples was used to evaluate their effectiveness. We generated 20 random training/test partitions based on data collected in single-strain chips (no crosstalk data) to have an estimate of performance.

The subject of another experiment is E. coli MG1655/Cd1. The experiment in a line: 8-strain chip induction (fluorescence induction ratio). The conditions noted are these: toxin at t=0, pure water at t=2 hours; cadmium 0.05, lead 1.8 μM.
Excerpt: as §1, §2

A further experiment has as its system E. coli MG1655/Hg3. The experiment is described as above. The conditions noted are these: toxin at t=0, pure water at t=2 hours; cadmium 0.05, mercury 0.2 μM.
Excerpt: as §1, §2

Another experiment deals with E. coli LABEC01/Cr5. Kind of experiment: on-chip time-lapse induction of promoter construct (GFP, gill chip).
The subject of a further experiment is E. coli MG1655/Cu1. The experiment in a line: 8-strain chip induction (fluorescence induction ratio). The conditions noted are these: toxin at t=0, pure water at t=2 hours; copper 5, lead 1.8 μM.
Excerpt: as §1, §2

The next experiment concerns E. coli LABEC01/Pb2. The experiment in a line: on-chip time-lapse induction of promoter construct (GFP, gill chip).
The mark [2] stands for this setting: 0.13 μM arsenic, 6 h induction, SNR > 2 = significant response.

We go through six compounds from US20220057378A1, “MICROBIAL MICROFLUIDIC BIOSENSOR” (priority 2015, published 2022).

Values joined by “and” are separate entries in the source; they are usually repeats but may differ in a detail not shown here. Equal values may be shown once.

Protocol for E. coli LABEC01/Cr5: (§3) For on-chip induction experiments, strains were loaded into the device and grown in M9 minimal medium with 0.4% glucose and 50 μg/ml spectinomycin (for plasmid maintenance) for 2 days in the absence of toxin. Cells were imaged under 4× brightfield and GFP fluorescence filters on an Olympus IX-81 microscope every 2 min for 6 h under these non-inducing conditions to generate a fluorescence baseline. The toxin was then introduced to induce GFP expression and the cells were imaged every 2 min for 6 h.
(§4) To determine the response to toxin induction, the raw fluorescence images before and after induction were compared. The image stacks were analyzed using a custom ImageJ script to measure the average GFP signal over time for each cell trap. Any linear trend in the uninduced fluorescence data due to cell growth was subtracted from the data. In this manner, the dynamic signal-to-noise ratio (SNR) was calculated as: (current fluorescence−mean uninduced fluorescence)/(standard deviation of uninduced fluorescence).
(§5) This microfluidic platform was then used to measure the response of several toxin responsive promoter constructs identified from the literature and synthesized by Transcriptic. […] Note that SNR values greater than 2 indicate a significant response.
Protocol for E. coli LABEC01/Pb2: as §3, §4, §5
Protocol for E. coli MG1655/As1: as §3, §4, §5

Regarding `[As]` [Arsenic], in experiment [1], the “arsenic concentration detected on-chip (GFP)” value was 0.1 µM and 0.13 µM. Also, the “SNR after 6 h” value worked out at 20 in the experiment with E. coli MG1655/As1 (setting [2]) and 33 with E. coli MG1655/As3 (setting [2]). In addition, the “Concentration Sensed in Microfluidic Device” value (“Concentration Sensed” for short) with E. coli MG1655/As1 (arsR/parsR from E. coli plasmid, native RBS) was 0.13 µM; in the experiment with E. coli MG1655/As3 (arsR/parsR from E. coli genome, synthetic RBS) it was 0.13 µM. Also, the “GFP response of strain Pb7” value with E. coli MG1655/Pb7 is “smaller response”.
Consider `[Cd]` [Cadmium], for which, in the experiment on GFP sensor strains, the threshold of detection is 0.44 µM. In addition, in the experiment with E. coli MG1655/Cd1, the “GFP response of strain Cd1” value is “responding”. The “GFP response of strain Pb7” value with E. coli MG1655/Pb7 is given as “much larger response”. Besides, the “GFP response of strain Hg3” value in the experiment on E. coli MG1655/Hg3 is reported as “responding”.
As to `[Cr+6]` [Chromium(VI)], in the experiment on E. coli LABEC01/Cr5 (5 μM chromium(VI), 6 h induction, SNR > 2 = significant response), the “SNR after 6 h” value is given as 5. Moreover, the “Concentration Sensed” value in the experiment on E. coli LABEC01/Cr5 (chrB/pchrB from O. tritici transposon, native RBS) was 5 µM. In the experiment with GFP sensor strains, this compound displayed a threshold of detection of 1.25 µM. In the experiment on E. coli MG1655/Pb7, the “GFP response of strain Pb7” value is on record as “equal magnitude but more rapid response”.
Mercury: the threshold of detection with GFP sensor strains was 1 µM. Further, in the experiment with E. coli MG1655/Hg3, the “GFP response of strain Hg3” value is recorded as “sensitively responding”.
As to `[Cu]` [Copper], the threshold of detection with GFP sensor strains is 5 µM. Also, the “GFP response of strain Pb7” value with E. coli MG1655/Pb7 is reported as “smaller response”. For the same compound, in the experiment on E. coli MG1655/Cu1, the “GFP response of strain Cu1” value is “sensitively responding”.
Take `[Pb]` [Lead]: the threshold of detection in the experiment with GFP sensor strains was 1.8 µM. In addition, the “GFP response of strain Cd1” value in the experiment on E. coli MG1655/Cd1 was “responding at lesser magnitudes”. The “GFP response of strain Pb7” value in the experiment with E. coli MG1655/Pb7 is reported as “responding”. For the same compound, the “GFP response of strain Cu1” value in the experiment with E. coli MG1655/Cu1 was “responding at lesser magnitudes”. For the same compound, the “SNR after 6 h” value in the experiment with E. coli LABEC01/Pb2 (7 μM lead, 6 h induction, SNR > 2 = significant response) amounted to 18. For the same compound, in the experiment with E. coli LABEC01/Pb2 (pbrR/ppbrR from C. metallidurans plasmid, synthetic RBS), the “Concentration Sensed” value came out at 7 µM.
